Source: patent publication US20160082015A1, “METHODS, COMPOSITIONS AND KITS FOR PROMOTING MOTOR NEURON SURVIVAL AND TREATING AND DIAGNOSING NEURODEGENERATIVE DISORDERS” (PRESIDENT AND FELLOWS OF HARVARD COLLEGE, priority 2013, published 2016)

Key:
HB9::GFP MNs [1] = experiment: Image analyses of synapses and neurite arborization; assay type: cell-based, mouse; details: 5 μM
Description: (§1) For synapse analysis, the inventors quantified imaging data using the PerkinElmer Acapella software spot detection algorithm. Synapses were defined as the overlap of presynaptic and postsynaptic spots on MNs. On each GFP^+ cell, we first drew a circle around the cell body with a diameter of approximately two cell body diameters, similar to that described by Ullian et al. (Schwann cells and astrocytes induce synapse formation by spinal motor neurons in culture. Mol Cell Neurosci., 2004, 25: 241-251) as the area for spot detection. Within each circle, presynaptic sites were detected using a primary antibody against synapsin and a secondary antibody conjugated with Alexa-632. Candidate spots that met an average intensity threshold were accepted as legitimate presynaptic punctac. Then we expanded the radius of each presynaptic puncta by 1 pixel, since the pre- and post-synaptic spots often were slightly offset, especially at higher magnifications, and measured the intensity in the postsynaptic channel, using a PSD95 primary antibody and a secondary antibody conjugated with Alexa-546. Postsynaptic punctae that exceeded the threshold mean intensity threshold were accepted, permitting us to define “colocalized” spots, or synapses.
(§2) The neurite tracing method in Acapella software is based on methods developed at CSIRO at perkinelmer.com/pages/020/cellularimaging/assaysneuriteoutgrowth.xhtm. The cell bodies of MNs were located by expression of HB9:GFP, and the neurites were also detected by GFP fluorescence. The algorithm measured the lengths and fluorescence intensities of each neurite and the branching level (primary, secondary, etc). The total lengths of neurites and the numbers, lengths and fluorescent intensities of primary and secondary branches were measured based on selected threshold parameters.

SOD1^G93A/HB9::GFP MNs = experiment: as above; assay type: cell-based, mouse; details: 5 μM
Description: as §1, §2

HB9::GFP MNs [2] = experiment: Whole-cell voltage-clamp and current-clamp recordings; assay type: cell-based, mouse; details: −TF/+kenpaullone, 3 days
Method: Images show synapsin (yellow) and PSD95 (red) staining on a kenpaullone-treated MN. Arrows indicate examples of synapses on MNs. Data are presented as mean±SEM. Scale bar represents 50 μm. […] HB9::GFP MNs treated for 3 days in the absence of trophic factors (−TF/+kenpaullone) were compared to MNs that were grown in complete medium (+TF) in terms of functional sodium and potassium currents, action potentials, response to excitatory neurotransmitter (kainate, 100 μM), and response to inhibitory neurotransmitter (GABA, 100 μM).
Whole-cell voltage-clamp and current-clamp recordings were performed as described (Son et al., 2011).
To examine whether kenpaullone could maintain neuronal health during trophic factor withdrawal, the inventors also compared the electrophysiological properties of MNs grown in complete medium (+TF) with those of cells in trophic factor-deficient (−TF) medium with or without kenpaullone supplementation (FIGS. 4C and 10G). First of all, when the inventors attempted to record from cells grown in medium lacking both trophic factors and kenpaullone, the inventors were unable to obtain stable recordings despite a significant number of patch attempts. […] The inventors also recorded responses to excitatory neurotransmitters, such as kainate, and Inhibitory transmitters, such as GABA, in the two sets of MNs.

[3] = tested on: endogenous mouse SOD1 protein; experiment: SOD1 protein levels by Western blotting; assay type: cell-based; details: HB9::GFP or SOD1^G93A/HB9::GFP cultures
Method: Since the additional death undergone by the SOD1^G93A/HB9::GFP MNs seems likely to relate to their expression of high levels of SOD1^G93A protein, one possibility is that kenpaullone could act in part by reducing those levels. Kenpaullone was added to cultures on day 4, and the levels of mutant SOD1^G93A protein were analyzed by Western blotting on day 21 (FIGS. 5A and 5B). […] The endogenous mouse SOD1 protein was not affected in either HB9::GFP or SOD1^G93A/HB9::GFP cultures (data not shown). In addition, the inventors discovered that kenpaullone had no effect on the levels of wild-type human SOD1 in cultures produced from an ESC line that overexpresses a wild-type human SOD1 transgene (wtSOD1/Hb9::GFP) (FIGS. SA mad SB). […] However, when the inventors used single cell confocal imaging to examine SOD1^G93A levels specifically in GFP^+ cells, it was clear that the SOD1^G93A levels in MNs were reduced, both in the presence and absence of trophic factors (FIG. 5C).

ubiquitin = experiment: MN ubiquitin levels by single cell imaging; assay type: cell-based, mouse; details: days 21 and 28, SOD1^G93A/HB9::GFP MNs
Description: Insets show higher magnification of cells contained within white circles. Data are presented as mean±SEM. * p<0.05 (Student's t test, two-tailed). Scale bar represents 50 μm.
It has been shown that SOD1^G93A accumulates in ubiquitinated aggregates after about 2 weeks of culture (Di Giorgio et al., 2007). Ubiquitinated proteins are found to be elevated in MNs of ALS patients and SOD1^G93A mice during neural degeneration (Watanabe et al., 2001; Wang et al., 2003). The inventors also observed the appearance of aggregates in their cultures at these later times (FIG. 5C). This led us to examine when differences in SOD1^G93A protein levels began to appear. […] Thus, the ability of kenpaullone to reduce the later periods of SOD1^G93A/HB9::GFP death coincides in time with the decreased levels of SOD1^G93A and ubiquitin.

[4] = tested on: HGK-Tak1-MKK4-JNK-c-Jun cell death signaling cascade; experiment: JNK/c-Jun signaling pathway analysis by immunostaining; assay type: cell-based, mouse; details: trophic factor withdrawal
Method: For JNK/c-Jun signaling pathway analysis, freshly dissociated SOD1G93A/HB9::GFP and HB9::GFP EBs were plated at a density of 30,000 GFP+ cells/well in 96-well plates and trophic factor withdrawal/compound addition was performed on day 4. Cells were fixed at 1, 6, 24 and 48 h after treatment, stained with appropriate antibodies, and imaged using an automated microscope (Perkin Elmer Operetta) at 20× magnification. GFP+ MNs were identified using Columbus analysis software (Perkin Elmer). Nuclear and cytoplasmic compartments were defined using Hoechst and GFP. Mean intensity of fluorescent staining across nuclear or cytoplasmic compartments was measured for each MN. Intensities were corrected for background staining levels (secondary antibody only) and the number of positive MNs per condition quantified.

HB9::GFP MNs [5] = experiment: Mouse MN survival assay, trophic factor withdrawal; details: for survival of HB9::GFP MNs: trophic factors removed and compound added day 4, fixed day 7
Method: For the small molecule screen or for standard survival assays, freshly dissociated EBs were plated at a density of 8,000 GFP^+ cells (384-well) or 30.000 GFP+ cells (96-well) per well. Four days later (day 4), trophic factors (BDNF, GDNF and CNTF) were removed, and individual compounds were added to the wells. For the primary screen each was tested at three concentrations (0.1 μM, 1 μM and 10 μM) in duplicate. […] The number of MNs surviving was analyzed by counting the remaining GFP^+ cells in the whole well. Total cell numbers were obtained by counting Hoechst-positive nuclei. A size threshold was set based on control cultures to eliminate apoptotic MNs Unless stated otherwise, survival is measured as fold-increase compared to cultures maintained without trophic factors.
For long-term MN survival assays, MN cultures were fed with fresh medium and compounds every two days until fixation and quantification as above.
All primary hits were subsequently tested in a nine-point dose-response assay, using the same screening protocol.

[6] = trophic factors removed day 4, analyzed day 21

## O=C1Cc2c([nH]c3ccc(Br)cc23)-c2ccccc2N1 [Kenpaullone]
HB9::GFP MNs [1]; no trophic factors, day 21
  number of synapses per MN: dramatic increase
HB9::GFP MNs [1]; [6]
  neuritic network of MNs: maintain the neuritic network of these cells at levels seen in trophic factor supplemented cultures
SOD1^G93A/HB9::GFP MNs; no trophic factors, day 21
  synapses per MN: supported their ability to maintain morphological synapses
SOD1^G93A/HB9::GFP MNs; [6]
  neurite growth of MNs: allowing neurite growth beyond that seen in cells kept in trophic factors
HB9::GFP MNs [2]
  electrophysiological properties compared with MNs in complete medium (+TF): no significant difference
[3]
  endogenous mouse SOD1 protein: not affected
ubiquitin
  MN levels of ubiquitin: reduced
[4]
  MKK4 phosphorylation: suppressed
  proportion of MNs immunopositive for phospho-Tak1: significantly reduced
[4]; early time points
  percent of MNs positive for phospho-JNK: decreased
  percent of MNs positive for phospho-cJun: decreased
HB9::GFP MNs [5]; Ara-C before trophic factor withdrawal
  MN survival effect after Ara-C treatment to eliminate dividing progenitors: did not decrease the effect
HB9::GFP MNs [5]; days 7, 14, 21 and 28
  long-term survival of MNs without trophic factors: improved survival
HB9::GFP MNs [5]; first two weeks
  MN death in complete medium (+TF): reduced the death
HB9::GFP MNs [5]; highly enriched Hb9::GFP MN cultures, Ara-C, trophic factors removed
  survival of FACS purified MNs: still able to promote survival
HB9::GFP MNs [5]
  survival of HB9::GFP MNs: strong effects
HB9::GFP MNs [5]; listed as kenpaullone
  survival of HB9::GFP MNs: potent survival promoting effects
